Data taken from ChEMBL document CHEMBL1153972, “Solution studies on the complex of 4'-epiadriamycin-d-(CGATCG)2 followed by time-resolved fluorescence measurement, diffusion ordered spectroscopy and restrained molecular dynamics simulations” (Bioorg Med Chem, 2009).
Active and inactive are the calls of the source.

Legend:
Assay type in all cases: nucleic-acid assay
[1] = test system: Nucleic Acid; experiment: Binding affinity to DNA d-(CGATCG)2 by NMR study
[2] = test system: Nucleic Acid; experiment: Binding affinity to DNA d-(CGATCG)2 at drug to DNA ratio of 2:1 by time resolved fluorescence measurements
[3] = test system: Nucleic Acid; experiment: Binding affinity to DNA d-(CGATCG)2 at drug to DNA ratio of 2:1 by 2D NOESY experiment
[4] = test system: Nucleic Acid; experiment: Binding affinity to DNA d-(CGATCG)2 assessed as rate of diffusion by diffusion ordered spectroscopy study

Measured: Activity

COc1cccc2c1C(=O)c1c(O)c3c(c(O)c1C2=O)C[C@@](O)(C(=O)CO)C[C@@H]3O[C@H]1C[C@H](N)[C@@H](O)[C@H](C)O1
active: [1] | [2] | [3] | [4]
